We go through 4 compounds from ChEMBL document CHEMBL1157899, “Molecular modelling, synthesis and acetylcholinesterase inhibition of ethyl 5-amino-2-methyl-6,7,8,9-tetrahydrobenzo[b][1,8]naphthyridine-3-carboxylate” (Bioorg Med Chem Lett, 2010).

The target in assay [1] is Acetylcholinesterase (Electrophorus electricus, UniProt O42275). The experiment in a line: Inhibition of electric eel AChE.
Assay [2] has as its target Cholinesterase (Equus caballus, UniProt P81908). The assay is described as follows: Inhibition of Equus caballus BuChE.
The target of assay [3] is Acetylcholinesterase (Homo sapiens, UniProt P22303). The experiment in a line: Inhibition of human AChE.
Chain of Acetylcholinesterase (Homo sapiens, UniProt P22303) (P22303 whole entry): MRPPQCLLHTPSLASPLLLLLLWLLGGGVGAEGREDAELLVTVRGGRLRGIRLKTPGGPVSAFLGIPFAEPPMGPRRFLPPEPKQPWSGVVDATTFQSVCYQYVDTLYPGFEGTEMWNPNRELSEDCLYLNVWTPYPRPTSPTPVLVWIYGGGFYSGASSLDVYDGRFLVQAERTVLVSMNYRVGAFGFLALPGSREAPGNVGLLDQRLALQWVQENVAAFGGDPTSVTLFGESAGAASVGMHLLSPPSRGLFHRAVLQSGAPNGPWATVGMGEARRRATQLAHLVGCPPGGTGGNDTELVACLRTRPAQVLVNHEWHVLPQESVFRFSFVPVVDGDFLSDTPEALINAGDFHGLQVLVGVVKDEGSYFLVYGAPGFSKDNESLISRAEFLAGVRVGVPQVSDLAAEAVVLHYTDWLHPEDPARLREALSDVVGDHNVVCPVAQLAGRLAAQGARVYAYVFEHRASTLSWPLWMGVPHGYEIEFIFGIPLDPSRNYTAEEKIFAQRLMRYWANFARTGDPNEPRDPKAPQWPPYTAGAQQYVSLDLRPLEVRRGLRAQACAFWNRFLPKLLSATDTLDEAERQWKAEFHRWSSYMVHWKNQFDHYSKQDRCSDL

Chain of Cholinesterase (P81908 whole entry): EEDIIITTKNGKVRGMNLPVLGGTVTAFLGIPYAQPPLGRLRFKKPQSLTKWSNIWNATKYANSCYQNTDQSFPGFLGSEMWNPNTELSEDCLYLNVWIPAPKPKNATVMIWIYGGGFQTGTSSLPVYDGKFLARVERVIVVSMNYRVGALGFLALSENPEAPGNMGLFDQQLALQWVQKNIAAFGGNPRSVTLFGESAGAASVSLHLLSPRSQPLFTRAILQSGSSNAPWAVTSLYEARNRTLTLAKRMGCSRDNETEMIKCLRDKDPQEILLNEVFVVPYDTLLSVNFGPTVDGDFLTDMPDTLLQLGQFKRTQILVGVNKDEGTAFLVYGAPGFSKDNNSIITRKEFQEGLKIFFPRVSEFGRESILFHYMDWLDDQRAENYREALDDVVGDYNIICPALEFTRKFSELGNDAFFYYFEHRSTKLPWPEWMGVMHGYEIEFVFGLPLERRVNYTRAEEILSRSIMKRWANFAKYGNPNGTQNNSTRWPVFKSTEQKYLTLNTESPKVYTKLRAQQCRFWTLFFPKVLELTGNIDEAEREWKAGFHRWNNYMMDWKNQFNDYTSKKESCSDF
Chain of Acetylcholinesterase (Electrophorus electricus, UniProt O42275) (O42275 whole entry): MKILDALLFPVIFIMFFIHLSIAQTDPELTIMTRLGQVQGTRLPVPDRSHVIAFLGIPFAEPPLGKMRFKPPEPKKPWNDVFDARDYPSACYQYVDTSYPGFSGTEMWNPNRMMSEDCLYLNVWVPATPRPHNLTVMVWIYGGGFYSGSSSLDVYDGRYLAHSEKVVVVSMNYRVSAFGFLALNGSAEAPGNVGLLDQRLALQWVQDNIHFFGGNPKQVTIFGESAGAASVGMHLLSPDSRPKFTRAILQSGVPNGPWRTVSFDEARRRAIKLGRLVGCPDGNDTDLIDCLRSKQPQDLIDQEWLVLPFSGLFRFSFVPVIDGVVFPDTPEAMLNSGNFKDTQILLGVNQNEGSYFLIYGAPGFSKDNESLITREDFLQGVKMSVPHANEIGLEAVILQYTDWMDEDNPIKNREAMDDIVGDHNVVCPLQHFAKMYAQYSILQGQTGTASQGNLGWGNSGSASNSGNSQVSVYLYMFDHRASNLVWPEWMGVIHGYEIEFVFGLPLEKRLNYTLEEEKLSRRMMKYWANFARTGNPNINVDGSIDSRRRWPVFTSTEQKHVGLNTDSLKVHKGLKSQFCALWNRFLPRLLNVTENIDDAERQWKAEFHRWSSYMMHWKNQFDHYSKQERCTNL

With `CCOC(=O)c1cc2c(N)c3c(nc2nc1C)CCCC3`, the IC50 worked out at 0.06 µM in assay [1], 12 µM in assay [2] (read-out: IC50) and 780 nM in assay [3].
With `Cc1nc2nc3c(c(N)c2cc1C(=O)[O-])CCCC3.[Na+]`, the figures for the IC50 in assay [1] and in assay [2] were 5.3 µM and “Not Active”, respectively.
Turning to `Cc1nc2nc3c(c(N)c2cc1C(=O)O)CCCC3`, the concentration for half-maximal inhibition (IC50) was 15 µM in assay [1] and “Not Active” in assay [2].
Turning to `CCOC(=O)c1c(C)nc2nc3c(c(N)c2c1-c1ccccc1)CCCC3`, in assay [2] (read-out: IC50), the IC50 was determined as 5.03 µM.
